Assay results published in PMC7614687, “Modulation of the substrate specificity of the kinase PDK1 by distinct conformations of the full-length protein*” (Science signaling, 2023).

Legend:
[1] = molecular target: T1, SNAP-PDK1 (Homo sapiens, UniProt O15530); assay: STORM-based single particle fluorescence of PDK1 monomers and dimers; conditions: 15 μM HYG8
T1 construct: SNAP-PDK1_50-556 (15 μM, in buffer Tris-HCl 50 mM pH 7.4); His (N); made in house; host or cells: insect cells
T1 sequence (O15530 50-556): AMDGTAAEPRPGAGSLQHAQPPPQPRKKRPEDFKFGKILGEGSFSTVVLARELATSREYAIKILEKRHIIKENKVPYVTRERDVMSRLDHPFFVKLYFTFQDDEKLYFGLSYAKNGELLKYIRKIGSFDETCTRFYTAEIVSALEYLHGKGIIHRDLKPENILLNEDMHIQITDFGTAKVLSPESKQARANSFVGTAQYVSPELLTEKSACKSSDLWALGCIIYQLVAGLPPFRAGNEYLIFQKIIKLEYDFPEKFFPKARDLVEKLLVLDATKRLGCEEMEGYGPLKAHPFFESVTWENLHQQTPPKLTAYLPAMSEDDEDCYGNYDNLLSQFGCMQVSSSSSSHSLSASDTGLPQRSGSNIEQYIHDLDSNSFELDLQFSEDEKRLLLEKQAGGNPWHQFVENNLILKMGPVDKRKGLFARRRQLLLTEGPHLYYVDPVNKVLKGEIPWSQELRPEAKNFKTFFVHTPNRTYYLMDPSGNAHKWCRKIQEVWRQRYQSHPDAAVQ
Experimental: SNAP-PDK1_50-556 (15 μM, in buffer Tris-HCl 50 mM pH 7.4, 200 mM NaCl, 200 mM imidazole and 1 mM DTT) was incubated with SNAP-Cell TMR-Star substrate (NEB) (30 μM) in the dark at room temperature for 1 h. Labelled SNAP-PDK1 was isolated by gel filtration using a PD MidiTrap G-25 Sephadex Column (GE). 10 μl labelled TMR-SNAP-PDK1 was diluted in buffer 50 mM Tris-HCl 50 mM pH 7.4 containing 100 mM NaCl and 1 mM DTT (control) or in the same buffer containing 15 μM HYG8 in a final volume of 20 μl. […] The slides were analysed using stochastic optical reconstruction microscopy (STORM) technology. Fluorescence from monomers was differentiated from that from dimers by the intensity of the fluorescence signals. […]
The STORM microscope used was custom-built around an OlympusIX-73 inverted microscope, as described previously ([96]). A 532 nm 1.5 W laser (Laser Quantum Ventus 532) was used for fluorescence excitation of TMR-Star. […] Images were recorded by an EMCCD camera (Andor iXon3 897). […] After calibration, the parameters selected in the STORM’s software were: shape, two color 120X; view, single; horizontal readout rate, 5.0 MHz; speed, 3.3 μs; clock voltage, normal; frame transfer mode, (select); set exposure time, 100 ms, real exposure time, 100 ms; real accumulation time, 102 ms; effective frame rate, 9.38 Hz; pre amplifier gain 5.1; electron multiplier gain, 30; laser power, 5 mW. […]

[2] = molecular target: T2, full-length PDK1 (GST-PDK1_1-556) (Homo sapiens, UniProt O15530); assay: Lipid overlay assay, di-C18-PIP3, full-length PDK1; assay type: binding
T2 construct: made in house; host or cells: HEK293 cells (transient transfection of pEBG2T)
T2 sequence (O15530 1-556): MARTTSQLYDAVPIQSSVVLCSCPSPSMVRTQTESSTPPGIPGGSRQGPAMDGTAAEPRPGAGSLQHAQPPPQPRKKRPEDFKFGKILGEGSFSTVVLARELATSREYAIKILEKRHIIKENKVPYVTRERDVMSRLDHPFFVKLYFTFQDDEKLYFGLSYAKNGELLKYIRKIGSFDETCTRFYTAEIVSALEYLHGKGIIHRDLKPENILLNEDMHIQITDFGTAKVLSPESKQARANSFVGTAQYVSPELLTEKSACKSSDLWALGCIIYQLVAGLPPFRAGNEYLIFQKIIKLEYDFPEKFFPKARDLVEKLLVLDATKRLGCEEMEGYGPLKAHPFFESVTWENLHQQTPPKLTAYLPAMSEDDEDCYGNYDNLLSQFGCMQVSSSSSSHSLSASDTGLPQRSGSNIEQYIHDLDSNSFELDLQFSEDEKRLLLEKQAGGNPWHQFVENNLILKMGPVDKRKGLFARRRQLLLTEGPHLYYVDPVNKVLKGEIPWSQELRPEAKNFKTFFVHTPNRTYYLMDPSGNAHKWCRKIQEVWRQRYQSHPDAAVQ
Experimental: Dots containing 2-1000 picomoles of di-C18-PIP3 ([70]) were prepared by spotting 1 μL of serial dilution stock solutions (2-1000 μM dissolved in a 1:2:0.8 by volume mixture of chloroform/methanol/water) onto Hybond-C extra membrane (GE Healthcare), which were dried at room temperature. Membranes were incubated with blocking buffer (50 mm Tris-HCl buffer pH 7.5, 2 mg/ml fatty acid free bovine serum albumin, 150 mM NaCl, and 0.1% (v/v) Tween 20) for 1 h at room temperature. Membranes were then incubated with 10 nM protein/10 μM inhibitor mixes in blocking buffer with gentle rocking overnight at 4 °C. Membranes were washed 10 times over 1 h at room temperature using TBST buffer (50 mM Tris-HCl pH 7.5, 150 mM NaCl, 0.1% (v/v) Tween 20) before being incubated for 1 h with 1:2000 dilution of rabbit recombinant anti-PDK1 monoclonal antibody (New England Biolabs). Membranes were washed and incubated with 1:2000 dilution of anti-rabbit HRP conjugated antibody (Invitrogen/Thermo Fisher) for 1 h at room temperature. Finally, after washing, proteins bound to the membranes were detected using Novex ECL chemiluminescent reagent (Invitrogen/Thermo Fisher) and developed on X-ray film.

| effect on proportion of PDK1 dimers [1] | displacement of the interaction between PIP3 and full-length PDK1_1-556 [2] | Structure (SMILES) |
| --- | --- | --- |
| decreased the proportion of PDK1 dimers |  | O=C(O[C@H]1[C@@H](OP(=O)(O)O)[C@H](OP(=O)(O)O)[C@@H](OP(=O)(O)O)[C@H](OP(=O)(O)O)[C@H]1OP(=O)(O)O)c1ccccc1 [HYG8, 2-O-benzoyl-IP5] |
|  | much more potent | CCCCO[C@H]1[C@@H](OP(=O)(O)O)[C@H](OP(=O)(O)O)[C@@H](OP(=O)(O)O)[C@H](OP(=O)(O)O)[C@H]1OP(=O)(O)O [HYG14, 2-O-butyl-IP5] |
